Consider 21 molecules from patent US20250268877A1 (BIOGEN MA INC., priority 2020, published 2025).

Molecules are shown by their SMILES. Values after ≈ are worked out from the molar mass of the structure shown.

The target in one series is MDR1 (Homo sapiens (Human), UniProt P08183). Nature of the series: MDR1-MDCK assay (apparent permeability, efflux ratio). Type of series: in vitro ADME. The settings on record: human, MDCK-MDR1, 1 μM, read-out: MDR1-MDCK_Efflux Ratio.
A short description of series [1]: Kinetic solubility assay (CLND), potassium phosphate buffer pH 6.8. It counts as physicochemical. The following applies: potassium phosphate buffer, pH 6.8, aqueous buffer, kinetic from dmso stock, pH 6.8, 2% DMSO, 24 hours at ambient temperature.
Description: • Inject filtrates into the nitrogen detector for quantification on Analiza's Automated Discovery Workstation (ADW). • Solubility results generated in μg/mL
Series [2] is described as follows: Kpuu assay (in vivo brain-to-plasma partition, unbound). The following applies: intravenous infusion 4 to 24 h, unbound drug partition coefficient; for Kp: brain (unbound) versus plasma (unbound), read-out: Brain Kpu,u.
Protocol: For the brain-to-plasma partition coefficient (Kp) evaluation, a dosing solution was intravenously infused into animals at a constant flow rate for 4 to 24 h. Blood samples were serially collected during infusion, and CSF and brain samples were harvested at the end of infusion.
Tissue samples were typically homogenized in phosphate buffer saline (PBS) using a bead ruptor.
CSF samples were typically diluted with 8% BSA in PBS to prevent from non-specific binding. Artificial CSF (aCSF) is used as the surrogate matrix.
Calibration curves were prepared by spiking the analyte(s) into blank matrices, which were processed together with plasma, tissue homogenate and/or CSF samples by protein precipitation using a proper organic solvent (e.g. acetonitrile and methanol) containing generic analogue internal standards (e.g. verapamil, chrysin and glyburide). Matrix matching was used when analyzing multiple matrices in the same run. Samples above the upper limit of quantitation (ULOQ) needed to be diluted into the calibration range using either a pre-extraction or post-extraction dilution approach.
Processed samples were analyzed by LC-MS/MS using a proper method performing within the acceptable sensitivity, selectivity, precision and accuracy. For an analytical run to be accepted, over 75% of the calibration standards in the dual calibration curves needed to be within 20% of the nominal concentrations.
Brain concentrations were compared against plasma concentrations at the corresponding timepoint for the calculation of partition coefficient (Kp).
Unbound drug partition coefficient (Kpuu), defined as the ratio of unbound drug partition across the blood-brain barrier, was calculated using the equation below:
[formula] • Cb: measured total drug concentration in brain • Fub: unbound drug fraction in brain • Cp: measured total drug concentration in plasma • Fup: unbound drug fraction in plasma Compound- or study-specific PK analysis that deviates from the typical procedure might be used when necessary, which will be documented in a study specific protocol included in the data upload.
Mix thoroughly. • This spiked plasma solution is shown in FIG. 1. • 3) Prepare a chilled ‘crash’ solution of internal standard in a solvent solution. • Pipette 200 μL of 25 ng/mL solution of internal standard, CPDPX (8-Cyclopentyl-1,3-dipropylxanthine, Sigma-Aldrich, C101) in 1:1 acetonitrile/methanol solvent solution into a 1 mL 96-well plate. • Chill on ice or refrigerate at 4° C. • This solution becomes the ‘Crash’ plate in FIG. 1. • 4) From remaining spiked plasma, remove 50 μL (T=0 h) of each plasma sample and place into a crash plate which contains 200 μL. To matrix match, add 50 μL of blank buffer to the crashed sample (similar to PPB samples). […] Mix crash plate thoroughly. • From remaining spiked plasma, remove 50 μL (T=4 h) of each plasma sample and place into a crash plate. To matrix match, add 50 μL of blank buffer to the crashed sample (similar to the protein binding samples). • Centrifuge crash plate at 3900 rpm for 10 minutes at 4° C.
% Free=(PAR of buffer side/PAR of plasma side)*100 • PAR—Peak area ratio (PAR)
Fu=% Free/100 • Fu=fraction unbound
For a further series, the target named is IRAK4 (Homo sapiens (Human), UniProt Q9NWZ3). The series is described as follows: IRAK4 2-hour 1 mM ATP Biochemical Assay (MesoScale Detection format). The following applies: 100 pM IRAK4, read-out: IRAK4 IC50.
Sequence of IRAK4 (Q9NWZ3 whole entry, the tested form may be a part): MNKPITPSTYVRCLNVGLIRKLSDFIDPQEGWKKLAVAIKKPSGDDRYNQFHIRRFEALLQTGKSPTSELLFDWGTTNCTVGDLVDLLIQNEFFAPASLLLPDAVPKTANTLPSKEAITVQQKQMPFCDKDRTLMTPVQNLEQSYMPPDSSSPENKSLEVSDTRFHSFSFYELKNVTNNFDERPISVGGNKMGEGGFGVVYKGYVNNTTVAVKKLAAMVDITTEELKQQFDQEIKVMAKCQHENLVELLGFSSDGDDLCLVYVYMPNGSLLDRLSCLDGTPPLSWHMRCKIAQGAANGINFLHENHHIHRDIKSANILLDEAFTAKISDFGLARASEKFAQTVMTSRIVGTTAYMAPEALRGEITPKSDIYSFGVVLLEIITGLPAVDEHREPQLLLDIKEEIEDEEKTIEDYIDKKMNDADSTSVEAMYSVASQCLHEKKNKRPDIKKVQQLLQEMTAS
The target of series [3] is catalytical domain of human IRAK4 (a.a. 163-460) (Homo sapiens (Human), UniProt Q9NWZ3). The series is described as follows: IRAK4 SPR binding assay. The settings on record: single-cycle, 1:1 interaction model.
Sequence of catalytical domain of human IRAK4 (a.a. 163-460) (Q9NWZ3 163-460): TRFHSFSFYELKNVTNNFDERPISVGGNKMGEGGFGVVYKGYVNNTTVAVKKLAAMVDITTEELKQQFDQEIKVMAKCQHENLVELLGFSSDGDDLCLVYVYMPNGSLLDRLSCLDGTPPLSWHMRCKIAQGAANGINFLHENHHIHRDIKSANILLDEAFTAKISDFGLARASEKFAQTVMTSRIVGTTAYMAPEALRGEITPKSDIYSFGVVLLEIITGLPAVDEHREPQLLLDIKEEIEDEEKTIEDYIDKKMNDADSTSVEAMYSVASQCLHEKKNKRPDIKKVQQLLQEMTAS
Protocol: IRAK4 SPR. IRAK4 SPR was set up on Biacore T200 or S200 by using Biotin CAPture kit (Cytiva). In brief, purified IRAK4 in capture buffer (25 mM Hepes, 150 mM NaCl, 1 mM TCEP, pH7.4) was captured onto a CAP sensor surface via the interaction of biotin to streptavidin Typical capture level is between 1,000 RU to 2,000 RU, Compound binding kinetics to IRAK4 was examined with running buffer (25 mM Hepes, 150 mM NaCl, 1 mM TCEP, 2% DMSO, pH7.4). Serially diluted compounds were injected at 50 μl/min in single-cycle for 60-s association of each injection followed by 360-s dissociation at the end. The data was fitted to global 1:1 interaction model.

One may read the solubility as the concentration that dissolves in the medium under given conditions. Low readings indicate a poorly soluble substance, high ones a readily soluble substance. Broadly, the IC50 is the concentration that gives 50% inhibition.

Sequence of MDR1 (P08183 whole entry): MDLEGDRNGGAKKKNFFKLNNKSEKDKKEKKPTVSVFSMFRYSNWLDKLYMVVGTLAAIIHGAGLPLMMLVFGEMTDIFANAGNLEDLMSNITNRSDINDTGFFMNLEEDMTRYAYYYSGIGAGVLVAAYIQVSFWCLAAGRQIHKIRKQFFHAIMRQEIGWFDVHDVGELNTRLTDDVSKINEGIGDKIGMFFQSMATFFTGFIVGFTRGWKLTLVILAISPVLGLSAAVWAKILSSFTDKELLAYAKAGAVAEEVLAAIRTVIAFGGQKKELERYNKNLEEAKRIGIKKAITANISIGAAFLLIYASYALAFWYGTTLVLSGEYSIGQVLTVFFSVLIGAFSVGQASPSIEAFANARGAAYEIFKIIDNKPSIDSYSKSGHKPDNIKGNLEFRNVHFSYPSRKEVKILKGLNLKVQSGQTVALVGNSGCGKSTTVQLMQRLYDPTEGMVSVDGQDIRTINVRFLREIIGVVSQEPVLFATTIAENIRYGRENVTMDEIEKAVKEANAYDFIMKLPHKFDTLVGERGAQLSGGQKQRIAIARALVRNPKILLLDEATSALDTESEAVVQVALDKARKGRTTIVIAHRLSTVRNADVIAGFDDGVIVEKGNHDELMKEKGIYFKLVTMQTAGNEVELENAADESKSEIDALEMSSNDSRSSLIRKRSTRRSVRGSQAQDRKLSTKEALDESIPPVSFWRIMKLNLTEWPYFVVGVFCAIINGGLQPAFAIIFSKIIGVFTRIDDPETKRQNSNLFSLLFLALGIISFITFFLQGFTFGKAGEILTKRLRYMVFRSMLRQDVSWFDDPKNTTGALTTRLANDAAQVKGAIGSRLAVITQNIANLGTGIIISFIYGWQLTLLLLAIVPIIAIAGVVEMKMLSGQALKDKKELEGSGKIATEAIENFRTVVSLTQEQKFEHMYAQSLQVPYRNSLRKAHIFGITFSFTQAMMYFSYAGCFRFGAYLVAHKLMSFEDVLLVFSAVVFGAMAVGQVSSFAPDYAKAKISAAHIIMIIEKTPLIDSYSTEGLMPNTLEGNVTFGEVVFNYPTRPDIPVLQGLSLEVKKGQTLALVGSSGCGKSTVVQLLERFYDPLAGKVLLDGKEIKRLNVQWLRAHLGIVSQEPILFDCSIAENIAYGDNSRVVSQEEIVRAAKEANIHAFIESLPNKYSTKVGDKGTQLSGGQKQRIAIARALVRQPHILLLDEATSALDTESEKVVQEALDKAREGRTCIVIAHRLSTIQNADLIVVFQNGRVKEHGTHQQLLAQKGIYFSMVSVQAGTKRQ

For `CC(C)Oc1nc2nn(C34COC(C)(C3)C4)cc2cc1C(=O)Nc1cccn([C@H]2C[C@H]2F)c1=O` (single isomer, unassigned) [Example 34], the efflux ratio at 120 min, 1 μM on MDR1 is 3.8. The solubility at 24 h in series [1] worked out at 24.9 µg/mL (≈ 53.3 µM). Moreover, the Kp in series [2] is 0.7.
Consider `C[C@@]12CC[C@@](n3cc4cc(C(=O)Nc5cccn(C6CC6)c5=O)c(OC5CCC5)cc4n3)(CO1)C2` (single isomer, unassigned) [Example 40], for which the IC50 on IRAK4 worked out at 0.4 nM. In addition, the efflux ratio at 120 min, 1 μM on MDR1 came to 1.32. The same molecule registered a solubility at 24 h in series [1] of 19.9 µg/mL (≈ 41.9 µM). In addition, the “Brain Kpu,u” value in series [2] is on record as 0.8.
On to `CC(C)Oc1nc2nn([C@]34CC[C@](C)(C3)OC4)cc2cc1C(=O)Nc1cccn(C2CC2)c1=O` (single isomer, unassigned) [Example 48], for which, on IRAK4, the IC50 was found to be 0.2 nM. Further, the efflux ratio at 120 min, 1 μM on MDR1 stood at 1.73. The solubility at 24 h in series [1] turned out to be 1.48 µg/mL (≈ 3.19 µM). For the same molecule, the “IRAK4 SPR binding Half Life” value in series [3] is 58 min.
Consider `CC(C)Oc1cc2nn([C@@]34CC[C@@](C)(C3)OC4)cc2cc1C(=O)Nc1cccn([C@@H]2C[C@H]2F)c1=O` (single isomer, unassigned) [Example 59], for which, at IRAK4, the IC50 came to 0.5 nM. Besides, the efflux ratio at 120 min, 1 μM on MDR1 turned out to be 1.59. In series [1], this molecule yielded a solubility at 24 h of 55.4 µg/mL (≈ 115 µM). The Kp in series [2] is 1.3.
For `COCC12CC(n3cc4cc(C(=O)Nc5cccn([C@H]6C[C@@H]6F)c5=O)c(OC(C)C)nc4n3)(CO1)C2` (single isomer, unassigned) [Example 64], at IRAK4, the IC50 came out at 0.4 nM. Further, on MDR1, the efflux ratio at 120 min, 1 μM worked out at 4.35. In addition, the solubility at 24 h in series [1] was determined as 58.9 µg/mL (≈ 118 µM). The “IRAK4 SPR binding Half Life” value in series [3] worked out at 47.2 min.
With `CC(C)Oc1cc2nn(C34COC(CF)(C3)C4)cc2cc1C(=O)Nc1cccn([C@@H]2C[C@H]2C)c1=O` (single isomer, unassigned) [Example 69], at IRAK4, the IC50 came to 0.5 nM. In addition, at MDR1, the efflux ratio at 120 min, 1 μM was found to be 1.74. The molecule also yielded a solubility at 24 h in series [1] of 8.2 µg/mL (≈ 17.1 µM). The Kp in series [2] came to 0.7.
In the case of `COCC12CC(n3cc4cc(C(=O)Nc5cccn([C@H]6C[C@H]6F)c5=O)c(OC5CC5)nc4n3)(CO1)C2` (single isomer, unassigned) [Example 86], the half-inhibitory concentration (IC50) at IRAK4 was found to be 0.2 nM. Moreover, the efflux ratio at 120 min, 1 μM at MDR1 was 18.7. In addition, in series [1], the solubility at 24 h was found to be 13.9 µg/mL (≈ 28.1 µM). For the same molecule, the “IRAK4 SPR binding Half Life” value in series [3] was found to be 74 min.
As for `O=C(Nc1cccn([C@H]2C[C@H]2F)c1=O)c1cc2cn([C@]34CC[C@H](C3)OC4)nc2nc1OC1CC1` (single isomer, unassigned) [Example 88], the IC50 at IRAK4 is 0.2 nM. The efflux ratio at 120 min, 1 μM on MDR1 is 9.11. In series [1], this molecule had a solubility at 24 h of 59.3 µg/mL (≈ 127 µM). Besides, the Kp in series [2] came to 0.2.
With `CC(C)Oc1nc2nn(C[C@@H]3CCOC3)cc2cc1C(=O)Nc1cccn(C2CC2)c1=O` [Example 4, (S)—N-(1-cyclopropyl-2-oxo-1,2-dihydropyridin-3-yl)-6-isopropoxy-2-((tetrahydrofuran-3-yl)methyl)-2H-pyrazolo[3,4-b]pyridine-5-carboxamide], on IRAK4, the IC50 came out at 0.4 nM. The efflux ratio at 120 min, 1 μM at MDR1 is 6.36. Also, the solubility at 24 h in series [1] is 43 µg/mL (≈ 98.2 µM). The Kp in series [2] came to 0.4.
On to `CC(C)Oc1nc2nn(C[C@H]3CCOC3)cc2cc1C(=O)Nc1cccn(C2CC2)c1=O` [Example 5, (R)—N-(1-cyclopropyl-2-oxo-1,2-dihydropyridin-3-yl)-6-isopropoxy-2-((tetrahydrofuran-3-yl)methyl)-2H-pyrazolo[3,4-b]pyridine-5-carboxamide], for which the IC50 at IRAK4 came to 0.2 nM. The efflux ratio at 120 min, 1 μM at MDR1 worked out at 4.88. In series [1], the solubility at 24 h came out at 45.6 µg/mL (≈ 104 µM). For the same molecule, the Kp in series [2] was 0.8.
Turning to `COCC12CC(n3cc4cc(C(=O)Nc5cccn(C6CC6)c5=O)c(OC(C)C)nc4n3)(CO1)C2` [Example 11, N-(1-cyclopropyl-2-oxo-1,2-dihydropyridin-3-yl)-6-isopropoxy-2-(1-(methoxymethyl)-2-oxabicyclo[2.1.1]hexan-4-yl)-2H-pyrazolo[3,4-b]pyridine-5-carboxamide], the IC50 at IRAK4 was found to be 0.2 nM. The efflux ratio at 120 min, 1 μM on MDR1 was 4.8. In series [1], this molecule registered a solubility at 24 h of 36 µg/mL (≈ 75.1 µM). Besides, the Kp in series [2] is 0.9.
Take `COCC12CC(n3cc4cc(C(=O)Nc5cccn(C6CC6)c5=O)c(OC(C)C)cc4n3)(CO1)C2` [Example 12, N-(1-cyclopropyl-2-oxo-1,2-dihydropyridin-3-yl)-6-isopropoxy-2-(1-(methoxymethyl)-2-oxabicyclo[2.1.1]hexan-4-yl)-2H-indazole-5-carboxamide]: on IRAK4, the IC50 was determined as 0.5 nM. In addition, the efflux ratio at 120 min, 1 μM at MDR1 came to 2.82. In addition, the solubility at 24 h in series [1] was determined as 67.7 µg/mL (≈ 141 µM). In series [2], the Kp was determined as 0.7.
Turning to `CC[C@H](C)Oc1nc2nn(C34COC(C)(C3)C4)cc2cc1C(=O)Nc1cccn(C2CC2)c1=O` [Example 15, (S)-6-(sec-butoxy)-N-(1-cyclopropyl-2-oxo-1,2-dihydropyridin-3-yl)-2-(1-methyl-2-oxabicyclo[2.1.1]hexan-4-yl)-2H-pyrazolo[3,4-b]pyridine-5-carboxamide], on IRAK4, the IC50 came out at 0.5 nM. Besides, the efflux ratio at 120 min, 1 μM on MDR1 amounted to 1.4. Moreover, in series [2], the Kp is 0.9.
With `CC(C)Oc1nc2nn([C@@H]3CCCOC3)cc2cc1C(=O)Nc1cccn(C2CC2)c1=O` [Example 17, (R)—N-(1-cyclopropyl-2-oxo-1,2-dihydropyridin-3-yl)-6-isopropoxy-2-(tetrahydro-2H-pyran-3-yl)-2H-pyrazolo[3,4-b]pyridine-5-carboxamide], the IC50 on IRAK4 came to 0.2 nM. Besides, the efflux ratio at 120 min, 1 μM on MDR1 is 2.6. This molecule also had a solubility at 24 h in series [1] of 50.4 µg/mL (≈ 115 µM). In addition, the Kp in series [2] came out at 0.5.
Regarding `CC12CC(n3cc4cc(C(=O)Nc5cccn([C@H]6C[C@H]6F)c5=O)c(OC5CCC5)nc4n3)(CO1)C2` [Example 27, 6-cyclobutoxy-N-(1-((1S,2R)-2-fluorocyclopropyl)-2-oxo-1,2-dihydropyridin-3-yl)-2-(1-methyl-2-oxabicyclo[2.1.1]hexan-4-yl)-2H-pyrazolo[3,4-b]pyridine-5-carboxamide], on IRAK4, the IC50 was 0.1 nM. For the same molecule, at MDR1, the efflux ratio at 120 min, 1 μM was found to be 5.38. In series [1], this molecule yielded a solubility at 24 h of 1.2 µg/mL (≈ 2.5 µM). For the same molecule, the Kp in series [2] worked out at 0.7.
For `COC[C@@]12CC[C@@](n3cc4cc(C(=O)Nc5cccn(C6CC6)c5=O)c(OC(C)C)nc4n3)(CO1)C2` [Example 30, N-(1-cyclopropyl-2-oxo-1,2-dihydropyridin-3-yl)-6-isopropoxy-2-((1S,4S)-1-(methoxymethyl)-2-oxabicyclo[2.2.1]heptan-4-yl)-2H-pyrazolo[3,4-b]pyridine-5-carboxamide], the IC50 on IRAK4 is 0.2 nM. Besides, the efflux ratio at 120 min, 1 μM on MDR1 was 2.58. Moreover, the Kp in series [2] is 0.6.
For `COCC12CC(n3cc4cc(C(=O)Nc5cccn([C@H]6C[C@H]6F)c5=O)c(OC(C)C)nc4n3)(CO1)C2` [Example 49, N-(1-((1S,2R)-2-fluorocyclopropyl)-2-oxo-1,2-dihydropyridin-3-yl)-6-isopropoxy-2-(1-(methoxymethyl)-2-oxabicyclo[2.1.1]hexan-4-yl)-2H-pyrazolo[3,4-b]pyridine-5-carboxamide], the IC50 at IRAK4 is 0.1 nM. The efflux ratio at 120 min, 1 μM at MDR1 turned out to be 9.67. In series [1], this molecule gave a solubility at 24 h of 62.3 µg/mL (≈ 125 µM). The Kp in series [2] was 0.4.
`CC(C)Oc1cc2nn(C34COC(C3)C4)cc2cc1C(=O)Nc1cccn([C@H]2C[C@H]2F)c1=O` [Example 68, 2-(2-oxabicyclo[2.1.1]hexan-4-yl)-N-(1-((1S,2R)-2-fluorocyclopropyl)-2-oxo-1,2-dihydropyridin-3-yl)-6-isopropoxy-2H-indazole-5-carboxamide]: the IC50 on IRAK4 is 0.2 nM. For the same molecule, the efflux ratio at 120 min, 1 μM at MDR1 was found to be 8.61. Moreover, the solubility at 24 h in series [1] amounted to 45.3 µg/mL (≈ 100 µM). Moreover, in series [2], the Kp is 0.4.
In the same order, the values of `COCC12CC(n3cc4cc(C(=O)Nc5cccn([C@H]6C[C@H]6C)c5=O)c(OC(C)C)nc4n3)(CO1)C2` [Example 77, 6-isopropoxy-2-(1-(methoxymethyl)-2-oxabicyclo[2.1.1]hexan-4-yl)-N-(1-((1S,2R)-2-methylcyclopropyl)-2-oxo-1,2-dihydropyridin-3-yl)-2H-pyrazolo[3,4-b]pyridine-5-carboxamide] are 0.4 nM, 2.09, 51 µg/mL (≈ 103 µM) and 0.9.
Regarding `CC(C)Oc1nc2nn(C34COC(C3)C4)cc2cc1C(=O)Nc1cccn([C@H]2C[C@H]2C)c1=O` [Example 80, 2-(2-oxabicyclo[2.1.1]hexan-4-yl)-6-isopropoxy-N-(1-((1S,2R)-2-methylcyclopropyl)-2-oxo-1,2-dihydropyridin-3-yl)-2H-pyrazolo[3,4-b]pyridine-5-carboxamide], the IC50 on IRAK4 is 0.5 nM. Further, the efflux ratio at 120 min, 1 μM on MDR1 amounted to 4.42. Also, the solubility at 24 h in series [1] amounted to 32.4 µg/mL (≈ 72.1 µM). In series [2], the Kp worked out at 1.
`C[C@@H]1C[C@@H]1n1cccc(NC(=O)c2cc3cn(C45COC(C)(C4)C5)nc3nc2OC2CCC2)c1=O` [Example 95, 6-cyclobutoxy-2-(1-methyl-2-oxabicyclo[2.1.1]hexan-4-yl)-N-(1-((1S,2R)-2-methylcyclopropyl)-2-oxo-1,2-dihydropyridin-3-yl)-2H-pyrazolo[3,4-b]pyridine-5-carboxamide]: the IC50 at IRAK4 turned out to be 0.8 nM. Also, the efflux ratio at 120 min, 1 μM at MDR1 stood at 1.09. The molecule further came in with a solubility at 24 h in series [1] of 48.3 µg/mL (≈ 102 µM).
